From patent US20040127566A1, “Retinoid hepatitis therapy” (priority 2004, published 2004)

Key:
hepatitis-C = assay: Free ATRA (oral) in a patient positive for hepatitis-C (Example 2)
hepatitis-A = assay: Free ATRA (oral) in a patient positive for hepatitis-A (Example 3)
[1] = blood, one month subsequent to the 3-week point
[2] = four months after beginning use of ATRA
[3] = one month subsequent to the 3-week point

**Q.** With `CC1=C(/C=C/C(C)=C/C=C/C(C)=C/C(=O)O)C(C)(C)CCC1` [free ATRA, all-trans retinoic acid] as the molecule, how does the viral load (hepatitis-C; [1]) read?
**A.** < 11000 copies/ml

**Q.** And the PCR status (hepatitis-C; [2])?
**A.** negative

**Q.** What about the “blood chemistry as to hepatitis C (SPGT and SGOT, bilirubin, alkaline phosphatase)” value (hepatitis-C; [3]) of the same molecule?
**A.** normal

**Q.** What about the viral load (hepatitis-A; [1]) of the same molecule?
**A.** < 1,000 copies/ml

**Q.** And the PCR status (hepatitis-A; [2])?
**A.** negative

**Q.** What about the “blood chemistry as to hepatitis A (SPGT and SGOT, bilirubin, alkaline phosphatase)” value (hepatitis-A; [3]) of the same molecule?
**A.** normal
